# Measurements reported in US20110065749A1, “METHOD AND PHARMACEUTICAL COMPOSITION FOR TREATMENT OF MENTAL DISORDERS” (ACTIVE CO. LTD., priority 2008, published 2011).
# Counter-ions that a name gives are not always drawn.
# What was measured:
# [1] = test system: Schizophrenia; assay: Case 12: schizophrenia patient; assay type: in vivo, human; conditions: 150 mg/day
# Description: A person had been diagnosed with schizophrenia and had received antipsychotic drugs. In spite of the treatment with newest antipsychotic drugs, the dullness of thinking, depression, and obesity of the patient were not improved.
# [2] = test system: Bulimia; assay: Case 7: bulimia (1) patient; assay type: in vivo, human; conditions: 150 mg/day
# Description: Patient was a person, who had been suffering from bulimia. Antidepressant, antianxiety, and other drugs were all ineffective. […] The effect of Cephadol® appeared in about two days.
# [3] = test system: Fibromyalgia; assay: Case 15: fibromyalgia (1) patient; assay type: in vivo, human
# Procedure: They then visited the inventor's clinic. When the inventor started the treatment with 75 mg/day Cephadol®, systemic pain of the patient was improved in two days. […] As a result, they became able to perform usual household work, go outside, and further make a trip.
# [4] = test system: depression; assay: Case 9: depressed symptoms patient, HAMD; assay type: in vivo, human; conditions: 75 mg/day
# Description: For evaluation of the state of depression, for example, Hamilton's rating scale for depression (HAMD) is available. The HAMD was developed by Max Hamilton in 1960 for the purpose of measuring the severity of a patient diagnosed with depression (Hamilton, M., Journal of Neurology, Neurosurgery & Psychiatry, 23-56-62 (1960) and Hamilton, M., “Development of rating scale for primary depressive illness”, British Journal of Social and Clinical Psychology, 6: 278-296 (1967)). In view of its high usefulness, it is a representative scale of evaluation for depression, widely used in clinical researches and practices. The 17 item version is used for clinical trials of antidepressants in Japan, whereas the 21 item version and the 24 item version are used in Europe or other countries.
# When the severity is calculated using Hamilton's rating scale for depression (HAMD), each item is evaluated with three grades of 0-2, or five grades of 0-4. For example, the case is diagnosed as severe where the point is 20 or higher and, as the point decreases, the symptom is diagnosed as being improved.
# Case 9: Depressed Symptoms
# Administration to the patient of 75 mg/day Cephadol® reduced the HAMD score from 20 points to 7 points after 3 days.
# [5] = test system: Withdrawal Symptoms; assay: Case 13: withdrawal symptoms on reducing other drugs; assay type: in vivo, human
# Procedure: Case 13: Withdrawal Symptoms A office worker had been on 10 mg Paxil®, 2 mg Rohypnol® and 2 mg Depas® before sleeping. Although they had tried to reduce the doses of the drugs, emergence of withdrawal syndrome had hampered the reduction of the drugs. They started to take Cephadol®, 25 mg after dinner and 50 mg before sleeping. It made them able to be free from the other drugs in two weeks.
# [6] = test system: Fibromyalgia; assay: Case 17: fibromyalgia (3) patient; assay type: in vivo, human
# Description: […] Being unresponsive to prescribed medicines, they were instructed to do gentle stretching exercise and massage, as well as thermotherapy on affected areas. However, their arthralgia was so terrible that they could not perform stretching exercise or other directions. They had pain at all the 18 tender points of the whole body, a jaw abnormality, and a strong pain at both knee joints, which made their unable to go to hospital on foot.
# [7] = test system: vertebral artery; conditions: dog experiments; cited from earlier work
# [8] = test system: Insomnia; assay: Case 11: insomnia in an elderly person; assay type: in vivo, human
# Procedure: Case 11: Insomnia in an Elderly Person A person had had no history of insomnia or depression before they retired from their company at mandatory retirement age. […] Being seriously distressed by insomnia, they had been prescribed hypnotics at two or three mental clinics. The hypnotics had made them easily fall down when going to the bathroom at night, and made them feel half awake in the morning, with memory impairment. The patient was started on 50 mg Cephadol® twice a day (after dinner and before sleeping).
# [9] = 25 mg after dinner and 50 mg before sleeping
# [10] = 50 mg twice a day, hypnotics halved
structure (smiles),measurement,setting,value
"OC(CCCN1CCCCC1)(c1ccccc1)c1ccccc1 [Cephadol®, 1,1-diphenyl-4-piperidine-1-ylbuthan-1-ol monohydrochloride]",appetite and body weight,[1],reduced their appetite and body weight
same,side effects and relapse of schizophrenia,[1],"no side effects, nor relapse of schizophrenia"
same,thinking speed and depression,[1],improved their subjective and objective thinking speed and depression
same,side effects,[2],no side effects
same,overeating,[2]; previously two to three times a day,significantly improved overeating
same,systemic pain,"[3]; 75 mg/day, in two days",improved
same,mobility of large joints (objective),[3]; 150 mg/day,the mobility of large joints increased
same,pain at 18 tender points including low back pain,[3]; 150 mg/day,totally improved
same,arthralgia,"[3]; 150 mg/day, increased one week later",complete elimination of arthralgia
same,side effects,[4],There were side effects
same,HAMD score,"[4]; after 3 days, from 20 points",7 points
same,side effects,[5]; [9],no side effects
same,"time until free from the other drugs (Paxil, Rohypnol, Depas)",[5]; [9],two
same,outcome after tapering Cephadol,"[5]; dose reduced from 50 mg to 25 mg, and to 0 mg",discontinuation of all the drugs
same,pain at both knee joints,[6]; 75 mg/day,improved the pain at both knee joints
same,systemic pain,[6]; 75 mg/day,eliminated the systemic pain
same,mobility of large joints (objective),[6]; 125 mg/day,the mobility of large joints increased
same,pain at both knee joints,[6]; dosage increased to 125 mg/day,the pain at both knee joints also disappeared
same,pain at both knee joints,"[6]; dosage reduced to 75 mg/day, on the next day",recurrence of the pain at both knee joints
same,pain at both knee joints,"[6]; dose re-increased to 125 mg/day, on the next day",eliminated the pain at both knee joints
same,blood flow of the vertebral artery,[7],increase the blood flow thereof
same,spasm of the vertebral artery,[7],remit the spasm of the vertebral artery
same,dose of concomitant hypnotics,[8]; 50 mg twice a day,reduced in dose by half
same,side effects,[8]; 50 mg twice a day,no side effects
same,sleep,[8]; 50 mg twice a day (after dinner and before sleeping),became able to sleep well
same,memory impairment on the next morning,[8]; [10],without memory impairment
same,staggering gait on awaking at night,[8]; [10],free from staggering gait on awaking at night
